Laboratory results as given in publication PMC12196166, “Mechanistic Insight into the Enhanced Anti-Pulmonary Hypertension Efficacy of Wogonin Co-Amorphous” (Pharmaceutics, 2025).

Tests used:
PDGF-BB-induced PASMCs [1] = assay: ROS detection (DCFH-DA probe); format: cell-based, Human; conditions: 3 μM, 40 ng/mL PDGF-BB for 48 h, DCFH-DA fluorescence, vs. model group
Procedure: Human PASMCs ([…], Cat. No.: CYH0707) were purchased from Wuhan Enji Life Technology Co., Ltd. (Wuhan, China) […] were cultured in Dulbecco's Modified Eagle Medium (DMEM) medium with 10% fetal bovine serum (FBS) and 1% penicillin/streptomycin (P/S), and maintained in a humidified 5% CO2 incubator at 37 °C. Prior to drug treatment, […] were subjected to serum starvation by culturing in a maintenance medium containing 0.5% FBS for 24 h to synchronize cell cycle progression. […] After 1 h, cells were stimulated with 40 ng/mL PDGF-BB for 48 h in each group except the control group. […] After treatment, cells were loaded with 1 μM 2',7'-dichlorodihydrofluorescein diacetate (DCFH-DA) probe for 20 min at 37 °C in the dark. Nuclei were counterstained with Hoechst 33342 Live Cells Staining Solution (1:100 dilution) for 10 min. Fluorescent imaging was performed using a laser scanning confocal microscope (Leica TCS SP8, Wetzlar, Germany) with excitation/emission settings at 488/525 nm for DCFH-DA and 350/461 nm for Hoechst 33342. ROS-associated fluorescence intensity was quantified using ImageJ 4.4 software.

PDGF-BB-induced PASMCs [2] = assay: Cell viability (CCK-8) assay, abnormal proliferation; format: cell-based, Human; conditions: 3 μM, 40 ng/mL PDGF-BB for 48 h, CCK-8, vs. model group
Procedure: Human PASMCs ([…], Cat. No.: CYH0707) were purchased from Wuhan Enji Life Technology Co., Ltd. (Wuhan, China) […] were cultured in Dulbecco's Modified Eagle Medium (DMEM) medium with 10% fetal bovine serum (FBS) and 1% penicillin/streptomycin (P/S), and maintained in a humidified 5% CO2 incubator at 37 °C. Prior to drug treatment, […] were subjected to serum starvation by culturing in a maintenance medium containing 0.5% FBS for 24 h to synchronize cell cycle progression. […] After 1 h, cells were stimulated with 40 ng/mL PDGF-BB for 48 h in each group except the control group. Cell viability was assessed using the Cell Counting Kit-8 (CCK-8) assay according to the manufacturer's protocol. Briefly, 10 μL of CCK-8 reagent was added to each well of pretreated PASMCs, followed by incubation at 37 °C under 5% CO2 for 2-h. The absorbance of each sample was quantified at 450 nm using a microplate reader.

[3] = system: monocrotaline (MCT)-induced PH rats; assay: Anti-pulmonary hypertension pharmacodynamics; format: in vivo, Sprague-Dawley rats
Procedure: Four-week-old male SPF Sprague-Dawley rats (weighing 220 ± 10 g) were purchased from Sporford Biotechnology Co., Ltd. (Beijing, China). and were randomly divided into cages (four rats per cage) and acclimatized for at least three days with free access to food and water.
Anti-PH pharmacodynamics were carried out using monocrotaline (MCT)-induced PH rats. Thirty rats were randomly divided into five groups: (A) control group; (B) model group; and three treatment groups (C) Wog group; (D) Wog+Alop group; and (E) Wog-Alop group. MCT was administered by a single femoral vein injection to induce PH. All administered groups of drugs were intragastrically administered from days 1 to 21 at a theoretical dose of 5 mg/kg/day for Wog. After three weeks of administration, the rats were weighed and anesthetized with 20% urethane. The electrocardiogram and right ventricular systolic pressure (RVSP) of rats were measured. The rats were perfused, and the heart and lung tissues were completely removed. The right ventricle (RV) and left ventricle plus ventricular septum (LV + S) were accurately separated and weighted, and the right ventricular hypertrophy index (RVHI) = RV/(LV + S) × 100%, RV mass index (RVMI) = RV/body weight × 100% and lung mass index (LMI) = lung weight/body weight × 100% were calculated. […] Heart tissues were taken for H&E and Masson staining, and lung tissues were stained with resorcinol basic fuchsin and proliferating cell nuclear antigen (PCNA) immunofluorescence.

PDGF-BB-induced PASMCs [4] = assay: Measurement of oxidative stress markers (MDA, GSH, CAT, GPx kits); format: cell-based, Human; conditions: 3 μM, vs. model group
Procedure: Human PASMCs ([…], Cat. No.: CYH0707) were purchased from Wuhan Enji Life Technology Co., Ltd. (Wuhan, China) […] were cultured in Dulbecco's Modified Eagle Medium (DMEM) medium with 10% fetal bovine serum (FBS) and 1% penicillin/streptomycin (P/S), and maintained in a humidified 5% CO2 incubator at 37 °C. Prior to drug treatment, […] were subjected to serum starvation by culturing in a maintenance medium containing 0.5% FBS for 24 h to synchronize cell cycle progression. […] After 1 h, cells were stimulated with 40 ng/mL PDGF-BB for 48 h in each group except the control group. The levels of MDA and glutathione (GSH), as well as the activities of CAT and glutathione peroxidase (GPx) in cells, were measured using commercial assay kits. The treated PASMCs were collected and lysed with protein lysis buffer following the manufacturer's instructions.

[5] = In vitro dissolution in distilled water (UPLC); format: physicochemical; conditions: 37.0 °C, 100 rpm
Procedure: The wogonin, physical mixture of wogonin and aloperine (Wog+Alop), and Wog-Alop with the theoretical drug content of 6.00 mg were accurately weighed and placed into 200 mL conical flasks containing 90 mL of distilled water at 37.0 °C and 100 rpm. A total of 2 mL of sample solution was withdrawn at predetermined time points (0, 1, 2, 3, 4, 5, 6, 7, 8, 9, 10, 15, 30, 45, and 60 min) and an equal volume of distilled water was immediately supplemented. The sample solutions were filtered through a 0.22 μm microporous membrane and determined by Ultra Performance Liquid Chromatography (UPLC).

[6] = Pharmacokinetic study after intragastric administration; format: in vivo; conditions: male, Sprague-Dawley, rat, po, rats, 5 mg/kg as wogonin, plasma
Procedure: Four-week-old male SPF Sprague-Dawley rats (weighing 220 ± 10 g) were purchased from Sporford Biotechnology Co., Ltd. (Beijing, China). and were randomly divided into cages (four rats per cage) and acclimatized for at least three days with free access to food and water. This study was performed with the approval of the Ethics Review Committee for Laboratory Animals of Beijing University of Chinese Medicine (approval number: BUCM-2023032307-1148) and strictly adhered to the relevant guidelines. Laboratory animal license No.: SCXK (Jing) 2019-0010; Laboratory unit use license No.: SYXK (Jing) 2020-0033.
Twenty-four SD rats were randomly divided into three groups of eight rats each. After 3 days of adaptive feeding, they were fasted (free access to water) for 12 h. On the morning of the fourth day, wogonin, Wog+Alop, and Wog-Alop were intragastrically administered at a theoretical dose of 5 mg/kg for wogonin. Plasma samples were collected into heparinized tubes from the oculi choroideae vein at 0, 5, 10, 15, 30, 45, and 60 min and 2, 4, 6, 8, 12, 24, 32, and 48 h after administration. Plasma samples were separated by centrifugation and stored at −80 °C until determination. Ultra-Performance Liquid Chromatography-Tandem Triple Quadrupole Mass Spectrometry (UPLC-QQQ-MS) multi-response monitoring (MRM) mode was used to determine plasma samples, and Masslynx 4.1 was used to calculate plasma drug concentrations at each collection time point. The plasma concentration versus time plots were drawn, and the pharmacokinetic parameters were calculated by DAS 2.1 software. The relative oral bioavailability (RB) was calculated using the following formula: […]

[7] = intragastric 5 mg/kg/day as Wog, days 1 to 21, vs. model group

| Compound | ROS levels (PDGF-BB-induced PASMCs [1]) | inhibition of abnormal proliferation of PDGF-BB-induced PASMC (PDGF-BB-induced PASMCs [2]) | P-wave duration [3, 7] | RVHI (right ventricular hypertrophy index) [3, 7] | RVMI (RV mass index) [3, 7] | increase in MDA levels (PDGF-BB-induced PASMCs [4]) | reduction in CAT activity (PDGF-BB-induced PASMCs [4]) | reduction in GPx activity (PDGF-BB-induced PASMCs [4]) | reduction in GSH levels (PDGF-BB-induced PASMCs [4]) | percentage of dissolution [5] | thickening of the medial wall of small pulmonary artery vessels ([3]; 5 mg/kg/day as Wog, 21 days, resorcinol basic fuchsin staining, vs. model group) | RVSP (right ventricular systolic pressure) [3, 7] | AUC(0-inf) ([6]; n = 8) | AUC(0-t) ([6]; n = 8) | Cmax ([6]; n = 8) | Tmax ([6]; n = 8) | MRT last ([6]; n = 8, read-out: MRT(0–t)) | MRT inf ([6]; n = 8, read-out: MRT(0–∞)) | half-life ([6]; n = 8, read-out: t1/2z (converted)) |
| --- | --- | --- | --- | --- | --- | --- | --- | --- | --- | --- | --- | --- | --- | --- | --- | --- | --- | --- | --- |
| C1=C2CCCN[C@H]2[C@@H]2C[C@H]1[C@H]1CCCCN1C2 [Alop, aloperine] | Neither Wog nor Alop alone showed notable inhibitory effects | almost no inhibitory effects | significantly reduce | not statistically significant | not statistically significant | significantly inhibited | significantly inhibited | significantly inhibited | significantly inhibited | – | – | – | – | – | – | – | – | – | – |
| COc1c(O)cc(O)c2c(=O)cc(-c3ccccc3)oc12 [Wogonin] | Neither Wog nor Alop alone showed notable inhibitory effects | almost no inhibitory effects | significantly reduce | not statistically significant | not statistically significant | significantly inhibited | significantly inhibited | significantly inhibited | significantly inhibited | 2.17% | inhibit the thickening | reduced RVSP, although without statistical significance | 0.077 ± 0.0806 µg·h/mL | 0.0491 ± 0.0421 µg·h/mL | 0.0148 ± 0.0122 µg/mL | 1.93 ± 3.41 h | 5.97 ± 4.79 h | 12.5 ± 17.5 h | 7.21 ± 9.97 h |
